Reference: patent US20050124497A1, “Delta1-pyrrolines and their use as pest control agents” (priority 2002, published 2005)

System: caterpillars of the diamondback moth (Plutella xylostella)
Assay: Plutella test
Type: in vivo
Conditions: 100 ppm active compound, cabbage leaves dipped, kill after 7 d
Protocol: To produce a suitable preparation of active compound, 1 part by weight of active compound is mixed with the stated amounts of solvent and emulsifier, and the concentrate is diluted with emulsifier-containing water to the desired concentration.
Cabbage leaves (Brassica oleracea) are treated by being dipped into the preparation of active compound of the desired concentration and are populated with caterpillars of the diamondback moth (Plutella xylostella) while the leaves are still moist.
After the desired period of time, the kill in % is determined. 100% means that all caterpillars have been killed; 0% means that none of the caterpillars have been killed.

SMILES: Fc1cc(-c2nc3cc(-c4ccccc4)ccc3o2)ccc1C1CCC(c2c(F)cccc2F)=N1 (stereo not shown) [drawing 46]
- Efficacy in % after 7 d: 100%
